The assay concerns the target T1, apo-FRL-PSII (reaction centre PsbA3/PsbD3 sites) (Synechococcus sp. PCC 7335, UniProt B4WKI3+Z9EN74SDD1).
T1 construct: native monomeric core complex from FRL-acclimated cells, ~226 kDa modelled; His6 tag at C-terminus of PsbC2; lacks OEC, extrinsic subunits and PsbH2 in map; PsbF2 assignment tentative; one unknown helix; with Photosystem II CP47 reaction center protein; Photosystem II CP43 reaction center protein; Cytochrome b559 subunit alpha; Cytochrome b559 subunit beta; Photosystem II reaction center protein I; Photosystem II reaction center protein K
Put plainly: cryo-EM structure, […] Å. It is filed as binding. The following applies: QA site; QB absent.

For the compound `CC(C)=CCC/C(C)=C/CC/C(C)=C/CC/C(C)=C/CC/C(C)=C/CC/C(C)=C/CC/C(C)=C/CC/C(C)=C/CC/C(C)=C/CC1=CC(=O)C(C)=C(C)C1=O` [plastoquinone], the “cryo-EM structure, 2.25 Å” value is on record as “one heme b, one plastoquinone, one NH-Fe ion”.

(Values after PMC8689208, “Structure of a monomeric photosystem II core complex from a cyanobacterium acclimated to far-red light reveals the functions of chlorophylls d and f” (The Journal of Biological Chemistry, 2021).)
